Measurements published in patent US20250339399A1, “SUPRAMOLECULAR SELF-ASSEMBLY SYSTEM” (Beijing Creatron Institute of Pharmaceutical Research Co., …, priority 2022, published 2025).

Key:
[1] = Guest molecule concentration after incubation in initial medium without polymer (Comparative Example 1); format: physicochemical; conditions: 37° C.
Method in brief: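 Dissolved guest content measured by HPLC of centrifuged supernatants (37° C., 13000 rpm, 5 min) sampled at 0.5 h, 3 h and 6 h. Incubation was polymer-free at 37° C.±0.5° C. in buffers of pH 2.0-7.4; nominal loading was set by maximum clinical dose.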

[2] = Binary supramolecular self-assembly systems of polymer and target: guest concentration over incubation time (Comparative Example 2); format: physicochemical; conditions: for Concentration of guest molecule in solution / Times that of the initial medium: 6 h
Description: Experiments were conducted according to the steps in Comparative Example 1, and quantitative analysis was carried out using the analytical method for each target to investigate the regulation ability […] stacking.

[3] = Binary (carrier), ternary and quaternary supramolecular self-assembly systems of polymer, carrier building block and target: guest concentration over incubation time (Examples 1-56); format: physicochemical
Method in brief: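 Targets were incubated at 37 °C in pH 2.0–7.4 buffers with 0.5% polymer alone or with carrier building blocks, after 0.5 h sonication for ternary systems, and shaken at 200 rpm. Samples at 0.5–6 h were centrifuged and diluted ≥10-fold, and dissolved target was quantified by HPLC; surfactant was added if needed.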

[4] = cited from earlier work
[5] = binary system with 0.5% polymer 101, incubation 0.5 h
[6] = binary system with 0.5% polymer 101, incubation 3 h
[7] = binary system with 0.5% polymer 101, incubation 6 h
[8] = binary system with 0.5% polymer 102, incubation 0.5 h
[9] = binary system with 0.5% polymer 102, incubation 3 h
[10] = binary system with 0.5% polymer 102, incubation 6 h
[11] = binary system with 0.5% polymer 103, incubation 0.5 h
[12] = binary system with 0.5% polymer 103, incubation 3 h
[13] = binary system with 0.5% polymer 103, incubation 6 h
[14] = binary system with 0.5% polymer 104, incubation 0.5 h
[15] = binary system with 0.5% polymer 104, incubation 3 h
[16] = binary system with 0.5% polymer 104, incubation 6 h
[17] = binary system with 0.5% polymer 106, incubation 0.5 h
[18] = binary system with 0.5% polymer 106, incubation 3 h
[19] = binary system with 0.5% polymer 106, incubation 6 h
[20] = binary system with 0.5% polymer 107, incubation 0.5 h
[21] = binary system with 0.5% polymer 107, incubation 3 h
[22] = binary system with 0.5% polymer 107, incubation 6 h
[23] = quaternary: 0.25% 205 (102H+104) + 0.25% 313, 6 h
[24] = quaternary: 0.25% 205 (102H+104) + 0.25% 318, 6 h
[25] = quaternary: 204 (103E5+102H) + 301, % not stated, 6 h
[26] = ternary: 0.25% 102H + 0.1% 313, 6 h
[27] = ternary: 0.25% 102H + 0.25% 313, 6 h
[28] = ternary: 0.25% 102H + 1.0% 313, 6 h
[29] = ternary: 102H (0.25% where stated) + 301, carrier % not stated, 6 h
[30] = quaternary: 202 (102H+107) + 0.5% 301, 6 h
[31] = quaternary: 202 (102H+107) + 0.5% 302, 6 h
[32] = quaternary: 204 (102H+103E5) + 0.5% 301, 6 h
[33] = quaternary: 204 (102H+103E5) + 0.5% 302, 6 h
[34] = ternary: 0.25% 102H + 0.5% 301, 6 h
[35] = ternary: 0.25% 102H + 0.5% 302, 6 h

CC(=O)c1c(C)c2cnc(Nc3ccc(N4CCNCC4)cn3)nc2n(C2CCCC2)c1=O [Palbociclib]
Concentration of guest molecule measured after different incubated time ([1]; 0.5 h, pH 6.8 phosphate buffer): 140.4 µg/mL | Concentration of guest molecule measured after different incubated time ([1]; 3 h, pH 6.8 phosphate buffer): 34.8 µg/mL | Concentration of guest molecule measured after different incubated time ([1]; 6 h, pH 6.8 phosphate buffer): 31.6 µg/mL | Concentration of the target in the solution measured after different incubation time [2, 5]: 163.1 µg/mL | Concentration of the target in the solution measured after different incubation time [2, 6]: 89.0 µg/mL | Concentration of the target in the solution measured after different incubation time [2, 7]: 85.5 µg/mL | Concentration of the target in the solution measured after different incubation time [2, 8]: 205.7 µg/mL | Concentration of the target in the solution measured after different incubation time [2, 9]: 167.0 µg/mL | Concentration of the target in the solution measured after different incubation time [2, 10]: 154.0 µg/mL | Concentration of the target in the solution measured after different incubation time [2, 11]: 259.9 µg/mL | Concentration of the target in the solution measured after different incubation time [2, 12]: 126.5 µg/mL | Concentration of the target in the solution measured after different incubation time [2, 13]: 109.6 µg/mL | Concentration of the target in the solution measured after different incubation time [2, 14]: 105.4 µg/mL | Concentration of the target in the solution measured after different incubation time [2, 15]: 156.4 µg/mL | Concentration of the target in the solution measured after different incubation time [2, 16]: 144.8 µg/mL | Concentration of the target in the solution measured after different incubation time [2, 17]: 131.3 µg/mL | Concentration of the target in the solution measured after different incubation time [2, 18]: 60.3 µg/mL | Concentration of the target in the solution measured after different incubation time [2, 19]: 58.2 µg/mL | Concentration of the target in the solution measured after different incubation time [2, 20]: 103.5 µg/mL | Concentration of the target in the solution measured after different incubation time [2, 21]: 32.0 µg/mL | Concentration of the target in the solution measured after different incubation time [2, 22]: 27.0 µg/mL | Concentration of guest molecule in solution ([2]; binary: 0.5% 102H): 154.0 µg/mL | Times that of the initial medium ([2]; binary: 0.5% 102H): 4.9 times | Concentration of guest molecule in solution ([2]; binary: 0.5% 103E5): 105.4 µg/mL | Times that of the initial medium ([2]; binary: 0.5% 103E5): 3.3 times | Concentration of guest molecule in solution ([2]; binary: 0.5% 104): 144.8 µg/mL | Times that of the initial medium ([2]; binary: 0.5% 104): 4.6 times | Increase of the concentration of the guest molecule ([3]; 0.25% 102H, 1.0% 313 compared to the 0.25% 313 system, 6 h): 16.4% | Concentration of guest molecule in solution ([3]; binary: 0.25% 301, 6 h): 77.0 µg/mL | Concentration of guest molecule in solution ([3]; binary: 0.25% 302, 6 h): 34.2 µg/mL | Concentration of guest molecule in solution ([3]; binary: 0.25% 310, 6 h): 279.8 µg/mL | Concentration of guest molecule in solution ([3]; binary: 0.25% 313, 6 h): 70.0 µg/mL | Concentration of guest molecule in solution ([3]; binary: 0.25% 318, 6 h): 60.5 µg/mL | Concentration of guest molecule in solution [3, 23]: 250.7 µg/mL | Times that of the initial medium [3, 23]: 7.9 times | Concentration of guest molecule in solution [3, 24]: 257.8 µg/mL | Times that of the initial medium [3, 24]: 8.2 times | Concentration of guest molecule in solution [3, 25]: 250.4 µg/mL | Times that of the initial medium [3, 25]: 7.9 times | Concentration of guest molecule in solution [3, 26]: 191.5 µg/mL | Times that of the initial medium [3, 26]: 6.1 times | Concentration of guest molecule in solution ([3]; ternary: 0.25% 102H + 0.25% 302, 6 h): 195.5 µg/mL | Concentration of guest molecule in solution ([3]; ternary: 0.25% 102H + 0.25% 310, 6 h): 44.8 µg/mL | Concentration of guest molecule in solution [3, 27]: 361.6 µg/mL | Times that of the initial medium [3, 27]: 11.4 times | Concentration of guest molecule in solution ([3]; ternary: 0.25% 102H + 0.25% 318, 6 h): 181.8 µg/mL | Concentration of guest molecule in solution [3, 28]: 420.8 µg/mL | Times that of the initial medium [3, 28]: 13.3 times | Concentration of guest molecule in solution ([3]; ternary: 0.25% 103E5 + 0.25% 302, 6 h): 102.3 µg/mL | Concentration of guest molecule in solution ([3]; ternary: 0.25% 104 + 0.25% 302, 6 h): 138.3 µg/mL | Concentration of guest molecule in solution [3, 29]: 126.9 µg/mL | Times that of the initial medium [3, 29]: 4.0 times | LogD7.4 or Log P [4]: 1.31

CNC(=O)c1cc(Oc2ccc(NC(=O)Nc3ccc(Cl)c(C(F)(F)F)c3)cc2)ccn1 [Sorafenib]
Concentration of guest molecule measured after different incubated time ([1]; 0.5 h, 0.1% SDS in pH 6.8 phosphate buffer): 98.5 µg/mL | Concentration of guest molecule measured after different incubated time ([1]; 3 h, 0.1% SDS in pH 6.8 phosphate buffer): 4.1 µg/mL | Concentration of guest molecule measured after different incubated time ([1]; 6 h, 0.1% SDS in pH 6.8 phosphate buffer): 4.4 µg/mL | Concentration of the target in the solution measured after different incubation time [2, 5]: 741.5 µg/mL | Concentration of the target in the solution measured after different incubation time [2, 6]: 751.6 µg/mL | Concentration of the target in the solution measured after different incubation time [2, 7]: 759.3 µg/mL | Concentration of the target in the solution measured after different incubation time [2, 8]: 770.6 µg/mL | Concentration of the target in the solution measured after different incubation time [2, 9]: 151.8 µg/mL | Concentration of the target in the solution measured after different incubation time [2, 10]: 102.9 µg/mL | Concentration of the target in the solution measured after different incubation time [2, 11]: 602.5 µg/mL | Concentration of the target in the solution measured after different incubation time [2, 12]: 61.5 µg/mL | Concentration of the target in the solution measured after different incubation time [2, 13]: 38.5 µg/mL | Concentration of the target in the solution measured after different incubation time [2, 14]: 108.9 µg/mL | Concentration of the target in the solution measured after different incubation time [2, 15]: 4.3 µg/mL | Concentration of the target in the solution measured after different incubation time [2, 16]: 3.7 µg/mL | Concentration of the target in the solution measured after different incubation time [2, 17]: 765.3 µg/mL | Concentration of the target in the solution measured after different incubation time [2, 18]: 571.3 µg/mL | Concentration of the target in the solution measured after different incubation time [2, 19]: 310.3 µg/mL | Concentration of the target in the solution measured after different incubation time [2, 20]: 784.3 µg/mL | Concentration of the target in the solution measured after different incubation time [2, 21]: 432.2 µg/mL | Concentration of the target in the solution measured after different incubation time [2, 22]: 244.4 µg/mL | Concentration of guest molecule in solution ([2]; binary: 0.5% 102H): 102.9 µg/mL | Times that of the initial medium ([2]; binary: 0.5% 102H): 18.4 times | Average concentration of guest molecule in solution ([2]; binary: 0.5% 102H, within 4 to 6 hours): 110 µg/mL | Concentration of guest molecule in solution ([2]; binary: 0.5% 103E5): 33.4 µg/mL | Times that of the initial medium ([2]; binary: 0.5% 103E5): 6.0 times | Concentration of guest molecule in solution ([2]; binary: 0.5% 107): 171.6 µg/mL | Times that of the initial medium ([2]; binary: 0.5% 107): 30.6 times | Concentration of guest molecule in solution [3, 30]: 512.2 µg/mL | Times that of the initial medium [3, 30]: 91.3 times | Concentration of guest molecule in solution [3, 31]: 572.8 µg/mL | Times that of the initial medium [3, 31]: 102.1 times | Concentration of guest molecule in solution [3, 32]: 543.3 µg/mL | Times that of the initial medium [3, 32]: 96.8 times | Concentration of guest molecule in solution [3, 33]: 431.5 µg/mL | Times that of the initial medium [3, 33]: 76.9 times | Concentration of guest molecule in solution [3, 34]: 609.8 µg/mL | Times that of the initial medium [3, 34]: 108.7 times | Concentration of guest molecule in solution [3, 35]: 644.6 µg/mL | Times that of the initial medium [3, 35]: 115 times | Concentration of guest molecule in solution ([3]; ternary: 102H + 310, carrier % not stated, 6 h): 65.6 µg/mL | Concentration of guest molecule in solution ([3]; ternary: 102H + 310, 2 h): 903.1 µg/mL | Concentration of guest molecule in solution ([3]; ternary: 102H + 311, 4 h): 804.8 µg/mL | Concentration of guest molecule in solution ([3]; ternary: 102H + 311, 6 h): 246.9 µg/mL | Concentration of guest molecule in solution ([3]; ternary: 102H + 313, carrier % not given, 6 h): 634.8 µg/mL | Concentration of guest molecule in solution ([3]; ternary: 102H + 313, 4 h): 884.2 µg/mL | Concentration of guest molecule in solution ([3]; ternary: 102H + 318, carrier % not stated, 6 h): 115.4 µg/mL | Concentration of guest molecule in solution ([3]; ternary: 102H + 318, 2 h): 778.1 µg/mL | LogD7.4 or Log P [4]: 4.34
